Assay results taken from patent US20050222408A1, “Heterocyclic amides with anti-tuberculosis activity” (priority 2003, published 2005).
Converted amounts (≈) assume the structure as drawn. “Also recorded” adds a separate entry of the source. Where two headings read alike, the source gives them in different places.

Tests used:
Vero cells = assay: Cytotoxicity, alamar blue assay against Vero cells; assay type: cell-based; settings: for ToxIC50: unit not given; for IC50: Chlorocebus sabaeus, read-out: ToxIC50
M. tuberculosis H37Ra = assay: MIC against M. tuberculosis H37Ra, micro broth dilution in microtiter plates; settings: M. tuberculosis H37Ra; for TB MIC: Table 1; for TB MIC / MIC: 7 days at 37° C., MIC90; for MIC: Mycobacterium tuberculosis, H37RA, 168 h, read-out: TB MIC, Table 1
M. tuberculosis = assay type: in vivo, mice; settings: […]; for viable M. tuberculosis, Spleen ± SEM: untreated controls 6.7 ± 0.16; for viable M. tuberculosis, Lungs ± SEM: untreated controls 8.0 ± 0.17
[1] = Table 1, Vero cells, alamar blue
[2] = Table 1, Vero cells, alamar blue, unit inferred

| SMILES | ToxIC50 (Vero cells; [1]) | TB MIC (M. tuberculosis H37Ra) [µg/mL] | IC50 (Vero cells; [2]) [µg/mL] | other results |
| --- | --- | --- | --- | --- |
| O=C(Nc1cccc(Br)c1)c1ccc([N+](=O)[O-])o1 [Compound 11, 5-Nitro-furan-2-carboxylic acid(3-bromo-phenyl)-amide] | 15.37 | 1.6 |  |  |
| COc1ccc(NC(=O)c2ccc([N+](=O)[O-])o2)cc1 [Compound 14, 5-Nitro-furan-2-carboxylic acid(4-methoxy-phenyl)-amide] | 21.44 | 0.4 |  |  |
| O=C(NCc1ccco1)c1ccc([N+](=O)[O-])o1 [Compound 18, 5-Nitro-furan-2-carboxylic acid(furan-2-ylmethyl)-amide] | 4.08 | 6.25 |  |  |
| N#Cc1ccc(NC(=O)c2ccc([N+](=O)[O-])o2)cc1 [Compound 19, 5-Nitro-furan-2-carboxylic acid(4-cyano-phenyl)-amide] | 3.53 | 0.8 |  |  |
| COc1ccc(CNC(=O)c2ccc([N+](=O)[O-])o2)c(OC)c1 [Compound 22, 5-Nitro-furan-2-carboxylic acid 2,4-dimetboxy-benzylamide] | 5.38 | 0.4 |  |  |
| COc1ccc(CCNC(=O)c2ccc([N+](=O)[O-])o2)cc1 [Compound 28, 5-Nitro-furan-2-carboxylic acid [2-(4-methoxy-phenyl)-ethyl]-amide] |  |  |  | IC50 (Vero cells; Vero): 20.4 µg/mL (≈ 70.5 µM); MIC (M. tuberculosis H37Ra): 0.8 µg/mL (≈ 2.76 µM) |
| CC(NC(=O)c1ccc([N+](=O)[O-])o1)c1ccccc1 (centres unmarked) [Compound 29, 5-Nitro-furan-2-carboxylic acid(1-phenyl-ethyl)-amide] | 25.63 | 1.6 |  |  |
| CC(NC(=O)c1ccc([N+](=O)[O-])o1)c1ccccc1 (centres unmarked) [Compound 30, 5-Nitro-furan-2-carboxylic acid(1-phenyl-ethyl)-amide] | 23.59 | 3.1 |  |  |
| COc1ccc(CCNC(=O)c2ccc([N+](=O)[O-])o2)cc1OC [Compound 31, 5-Nitro-furan-2-carboxylic acid [2-(3,4-dimethoxy-phenyl)-ethyl]-amide] |  |  |  | IC50 (Vero cells; Vero): 27.4 µg/mL (≈ 85.7 µM); MIC (M. tuberculosis H37Ra): 0.4 µg/mL (≈ 1.25 µM) |
| COc1cccc(NC(=O)c2ccc(Br)o2)c1 [Compound 33, 5-Bromo-furan-2-carboxylic acid(3-methoxy-phenyl)-amide] |  |  | 61.2 (≈ 207 µM) | MIC (M. tuberculosis H37Ra): 100 µg/mL (≈ 338 µM) |
| O=C(Nc1cccc(O)c1)c1ccc([N+](=O)[O-])o1 [Compound 35, 5-Nitro-furan-2-carboxylic acid(3-hydroxy-phenyl)-amide] |  |  | 12.5 (≈ 50.4 µM) |  |
| COc1cccc(NC(=O)c2ccc(Sc3ccccc3)o2)c1 [Compound 36, 5-Phenylsulfanyl-furan-2-carboxylic acid(3-methoxy-phenyl)-amide] |  |  | 25.7 (≈ 79 µM) | MIC (M. tuberculosis H37Ra): 25 µg/mL (≈ 76.8 µM) |
| COc1cccc(NC(=O)c2ccc([S+]([O-])c3ccccc3)o2)c1 (centres unmarked) [Compound 38, 5-Benzenesulfinyl-furan-2-carboxylic acid(3-methoxy-phenyl)-amide] |  |  | 65 (≈ 190 µM) |  |
| COc1cccc(NC(=O)c2ccc(S(=O)(=O)c3ccccc3)o2)c1 [Compound 39, 5-Benzenesulfonyl-furan-2-carboxylic acid(3-methoxy-phenyl)-amide] |  |  | 25.9 (≈ 72.3 µM) |  |
| CCOC(=O)c1ccc(C(=O)Nc2cccc(OC)c2)o1 [Compound 40, 5-(3-Methoxy-phenylcarbamoyl)-furan-2-carboxylic acid ethyl ester] |  |  | 200 (≈ 691 µM) |  |
| O=C(NCc1ccc(N2CCN(Cc3ccccc3)CC2)cc1)c1ccc([N+](=O)[O-])o1 [Compound 66, 5-Nitro-furan-2-carboxylic acid 4-(4-benzyl-piperazin-1-yl)-benzylamide] |  |  |  | selectivity index (SI) (Vero cells; summary b276): 1597; anti-tuberculosis MIC activity (M. tuberculosis H37Ra): extremely potent; also recorded: more active than isoniazid |
| NNC(=O)c1ccncc1 [Isoniazid, reference compound] |  |  |  | viable M. tuberculosis, Spleen ± SEM (M. tuberculosis; 25 mg/kg): 3.2 ± 0.21; viable M. tuberculosis, Lungs ± SEM (M. tuberculosis; 25 mg/kg): 5.5 ± 0.21 |
| Cc1ncc([N+](=O)[O-])n1CCO [Metronidazole, reference compound] |  |  |  | viable M. tuberculosis, Spleen ± SEM (M. tuberculosis; 150 mg/kg): 6.9 ± 0.04; viable M. tuberculosis, Lungs ± SEM (M. tuberculosis; 150 mg/kg): 8.5 ± 0.18 |
